Data as given in patent US8058311B2, “Imaging 18F or 11C-labelled alkylthiophenyl guanidines” (Hammersmith Imanet Limited, priority 2005, dated 2011).

Assay: Biodistribution: radioactivity in rat peripheral organs and body fluids after intravenous injection
Assay type: in vivo
Description: N-(2-Chloro-5-(2-[^18F]fluoro-ethylthio))-phenyl-N′-(3-methylthio)-phenyl-N′-methylguanidine was prepared according to Example 4 (synthesis formulation ˜3% ethanol in 0.9% w/v saline solution) with a radiochemical purity of ˜99% and, at time of injection, the specific activity ranged from 4-16 GBq/nmol^−1. Biodistribution and blood data were from 11 adult male Sprague-Dawley rats (body weight range, 269 to 329 g; mean±S.E.=300±18 g). N-(2-Chloro-5-(2-[^18F]fluoro-ethylthio))-phenyl-N′-(3-methylthio)-phenyl-N′-methylguanidine was injected directly into the tail vein of each rat whilst under isoflurane anaesthesia. Each animal was then allowed to recover from anaesthesia. At designated times after injection, rats were sacrificed by cervical dislocation under anaesthesia and brain and body tissues were rapidly sampled.
The data were acquired using two syntheses. Rats were given an average of 86 MBq (85.3 MBq for first experimental day and 87.3 MBq for the second experimental day), in a volume of 0.20 ml (synthesis formulation ˜3% alcohol), via direct intravenous injection through the tail vein. The mass of co-injected N-(2-Chloro-5-(2-[^18F]fluoro-ethylthio))-phenyl-N′-(3-methylthio)-phenyl-N′-methylguanidine ranged from 0.7-2.9 nmol.kg^−1. Details of the methodology, together with processing and counting of the samples can be found in Hume et al., Nucl. Med. Biol. (1991) 18: 339-351. Data were normalised for injected radioactivity and body weight, giving: ‘uptake units’=(cpm.g^−1 wet weight tissue)·(injected cpm.g^−1 body weight)^−1 Results
Radioactivity concentration data are additionally collated in Tables 1 (peripheral tissue) and 2 (brain). As metabolite studies were not carried out, the proportion of the total radioactivity reflecting label associated with parent N-(2-Chloro-5-(2-[^18F]fluoro-ethylthio))-phenyl-N′-(3-methylthio)-phenyl-N′-methylguanidine is not known. Note, Blood and plasma samples were collected post-mortem from the heart ventricle.

In the case of `CSc1cccc(N(C)C(=N)Nc2cc(SCC[18F])ccc2Cl)c1` [N-(2-Chloro-5-(2-[^18F]fluoro-ethylthio))-phenyl-N′-(3-methylthio)-phenyl-N′-methylguanidine], the peripheral clearance route is reported as “via kidney to urine and via the intestine”, the radioactivity in bone (2 min, n = 1) is reported as 1.355 uptake units and the radioactivity in fat (2 min, n = 1) is reported as 0.199 uptake units. The “radioactivity in heart (ventricle)” value (2 min, n = 1) was 6.412 uptake units, the radioactivity in kidney (2 min, n = 1) was 12.975 uptake units and the “radioactivity in large intestinal content” value (2 min, n = 1) was 0.113 uptake units. For the same compound, the “radioactivity in large intestine” value (2 min, n = 1) was 3.338 uptake units, the radioactivity in liver (2 min, n = 1) was 5.251 uptake units and the radioactivity in lung (2 min, n = 1) was 32.475 uptake units. The “radioactivity in skeletal muscle” value (2 min, n = 1) was 0.288 uptake units, the radioactivity in skin (2 min, n = 1) was 0.338 uptake units and the “radioactivity in small intestinal content” value (2 min, n = 1) was 1.390 uptake units. For the same compound, the “radioactivity in small intestine” value (2 min, n = 1) was 4.537 uptake units, the radioactivity in spleen (2 min, n = 1) was 3.985 uptake units and the radioactivity in stomach (2 min, n = 1) was 0.843 uptake units. The radioactivity in testis (2 min, n = 1) was 0.456 uptake units, the radioactivity in urine (2 min, n = 1) was 0.109 uptake units and the radioactivity in bone (5 min, n = 1) was 1.440 uptake units. The radioactivity in fat (5 min, n = 1) was 0.814 uptake units, the “radioactivity in heart (ventricle)” value (5 min, n = 1) was 2.761 uptake units and the radioactivity in kidney (5 min, n = 1) was 10.113 uptake units. The “radioactivity in large intestinal content” value (5 min, n = 1) was 0.148 uptake units, the “radioactivity in large intestine” value (5 min, n = 1) was 3.442 uptake units and the radioactivity in liver (5 min, n = 1) was 5.648 uptake units. The radioactivity in lung (5 min, n = 1) was 25.015 uptake units, the “radioactivity in skeletal muscle” value (5 min, n = 1) was 0.517 uptake units and the radioactivity in skin (5 min, n = 1) was 0.517 uptake units. For the same compound, the “radioactivity in small intestinal content” value (5 min, n = 1) was 1.449 uptake units, the “radioactivity in small intestine” value (5 min, n = 1) was 3.845 uptake units and the radioactivity in spleen (5 min, n = 1) was 3.676 uptake units. For the same compound, the radioactivity in stomach (5 min, n = 1) was 1.245 uptake units, the radioactivity in testis (5 min, n = 1) was 0.528 uptake units and the radioactivity in urine (5 min, n = 1) was 16.760 uptake units. The radioactivity in bone (10 min, n = 2) was 0.793 uptake units, the radioactivity in fat (10 min, n = 2) was 0.234 uptake units and the “radioactivity in heart (ventricle)” value (10 min, n = 2) was 1.119 uptake units. The radioactivity in kidney (10 min, n = 2) was 3.931 uptake units, the “radioactivity in large intestinal content” value (10 min, n = 2) was 0.109 uptake units and the “radioactivity in large intestine” value (10 min, n = 2) was 1.359 uptake units. For the same compound, the radioactivity in liver (10 min, n = 2) was 3.199 uptake units, the radioactivity in lung (10 min, n = 2) was 10.229 uptake units and the “radioactivity in skeletal muscle” value (10 min, n = 2) was 0.391 uptake units. The radioactivity in skin (10 min, n = 2) was 0.248 uptake units, the “radioactivity in small intestinal content” value (10 min, n = 2) was 1.162 uptake units and the “radioactivity in small intestine” value (10 min, n = 2) was 1.618 uptake units. It also gave a radioactivity in spleen (10 min, n = 2) of 3.008 uptake units, a radioactivity in stomach (10 min, n = 2) of 0.532 uptake units and a radioactivity in testis (10 min, n = 2) of 0.363 uptake units. It also gave a radioactivity in urine (10 min, n = 2) of 13.589 uptake units, a radioactivity in bone (30 min, n = 3) of 1.014 ± 0.019 uptake units and a radioactivity in fat (30 min, n = 3) of 0.613 ± 0.175 uptake units. The “radioactivity in heart (ventricle)” value (30 min, n = 3) was 0.740 ± 0.019 uptake units, the radioactivity in kidney (30 min, n = 3) was 3.287 ± 0.208 uptake units and the “radioactivity in large intestinal content” value (30 min, n = 3) was 0.445 ± 0.035 uptake units. The “radioactivity in large intestine” value (30 min, n = 3) was 1.619 ± 0.494 uptake units, the radioactivity in liver (30 min, n = 3) was 6.023 ± 0.699 uptake units and the radioactivity in lung (30 min, n = 3) was 3.786 ± 0.292 uptake units. The “radioactivity in skeletal muscle” value (30 min, n = 3) was 0.487 ± 0.036 uptake units, the radioactivity in skin (30 min, n = 3) was 0.491 ± 0.019 uptake units and the “radioactivity in small intestinal content” value (30 min, n = 3) was 6.002 ± 3.338 uptake units. For the same compound, the “radioactivity in small intestine” value (30 min, n = 3) was 2.241 ± 0.617 uptake units, the radioactivity in spleen (30 min, n = 3) was 2.713 ± 0.086 uptake units and the radioactivity in stomach (30 min, n = 3) was 1.558 ± 0.443 uptake units. It also gave a radioactivity in testis (30 min, n = 3) of 0.619 ± 0.081 uptake units, a radioactivity in urine (30 min, n = 3) of 49.593 ± 30.733 uptake units and a radioactivity in bone (60 min, n = 3) of 0.944 ± 0.305 uptake units. For the same compound, the radioactivity in fat (60 min, n = 3) was 0.405 ± 0.358 uptake units, the “radioactivity in heart (ventricle)” value (60 min, n = 3) was 0.505 ± 0.104 uptake units and the radioactivity in kidney (60 min, n = 3) was 2.429 ± 0.527 uptake units. The “radioactivity in large intestinal content” value (60 min, n = 3) was 1.176 ± 1.109 uptake units, the “radioactivity in large intestine” value (60 min, n = 3) was 7.291 ± 10.308 uptake units and the radioactivity in liver (60 min, n = 3) was 3.659 ± 0.822 uptake units. For the same compound, the radioactivity in lung (60 min, n = 3) was 2.387 ± 0.195 uptake units, the “radioactivity in skeletal muscle” value (60 min, n = 3) was 0.410 ± 0.096 uptake units and the radioactivity in skin (60 min, n = 3) was 0.435 ± 0.109 uptake units. The “radioactivity in small intestinal content” value (60 min, n = 3) was 10.518 ± 7.766 uptake units, the “radioactivity in small intestine” value (60 min, n = 3) was 1.841 ± 0.678 uptake units and the radioactivity in spleen (60 min, n = 3) was 1.675 ± 0.135 uptake units. For the same compound, the radioactivity in stomach (60 min, n = 3) was 1.227 ± 0.351 uptake units, the radioactivity in testis (60 min, n = 3) was 0.605 ± 0.150 uptake units and the radioactivity in urine (60 min, n = 3) was 23.375 ± 18.208 uptake units. For the same compound, the radioactivity in bone (90 min, n = 1) was 0.889 uptake units, the radioactivity in fat (90 min, n = 1) was 0.548 uptake units and the “radioactivity in heart (ventricle)” value (90 min, n = 1) was 0.464 uptake units. For the same compound, the radioactivity in kidney (90 min, n = 1) was 2.127 uptake units, the “radioactivity in large intestinal content” value (90 min, n = 1) was 0.764 uptake units and the “radioactivity in large intestine” value (90 min, n = 1) was 0.775 uptake units. The radioactivity in liver (90 min, n = 1) was 2.856 uptake units, the radioactivity in lung (90 min, n = 1) was 2.150 uptake units and the “radioactivity in skeletal muscle” value (90 min, n = 1) was 0.357 uptake units. For the same compound, the radioactivity in skin (90 min, n = 1) was 0.387 uptake units, the “radioactivity in small intestinal content” value (90 min, n = 1) was 8.700 uptake units and the “radioactivity in small intestine” value (90 min, n = 1) was 1.942 uptake units. For the same compound, the radioactivity in spleen (90 min, n = 1) was 1.418 uptake units, the radioactivity in stomach (90 min, n = 1) was 1.103 uptake units and the radioactivity in testis (90 min, n = 1) was 0.559 uptake units. For the same compound, the radioactivity in urine (90 min, n = 1) was 26.947 uptake units, the “de-fluorination (from bone uptake)” value (90 minutes) was “no evidence of de-fluorination” and the uptake in lung (at 90 minutes) was 2 uptake units. For the same compound, the “initial uptake in bone” value (initial) was 1.4, the “initial uptake in lung” value (initial) was about 30 uptake units and the “initial content in skeletal muscle, skin and testis” value (low, retained over the course of the experiment) was about 0.4 uptake units. For the same compound, the “uptake in bone after decrease” value (over the 90 minutes of the experiment) was about 0.8.
